According to article PMC6102691, “Identification of a novel ligand for the ATAD2 bromodomain with selectivity over BRD4 through a fragment growing approach” (Organic & Biomolecular Chemistry, 2018):

Columns and labels:
BRD4 = BRD4 (Homo sapiens, UniProt O60885); test: Surface plasmon resonance (SPR) direct binding to BRD4; conditions: SPR format assay; Kd above the top concentration projected by extrapolation (extrapolated Rmax from control compound)
Description: Surface plasmon resonance (SPR) was used to assess the direct binding of the fragments and provide Kd values for binding to both ATAD2 and BRD4. SPR can yield artefactual data where the concentration of a small-molecular analyte exceeds ∼250 μM, and accordingly, this was the highest concentration used in the assays. Where the Kd exceeded this limit, projected Kds were determined by extrapolation, using the observed response units for compound binding (RU) relative to the molecular weight of a known control compound.[23]
(§1) 12.5 μM using an Echo 550 (Labcyte). Each well was backfilled to a final volume of 200 nl (for the […]), resulting in final DMSO concentrations of 2 %. 5 μl of GST-ATAD2 was added to each well and incubated for 30mins resulting in a final concentration of 5 nM.
(§2) 5μl of biotinylated-histone H4 peptide (SGRG-K(Ac)-GG-K(Ac)-GLG-K(Ac)-GGA-K(Ac)- RHRKVGG-K(Biotin)) was then added to each well at a final concentration of 500nM. Both GST-ATAD2 and peptide were diluted in buffer B (50 mM Tris pH 7.5, […], 1 mM DTT, 100 μg/ml bovine serum albumin (BSA)). The plate was then incubated at room temperature for 30mins and then 5 μl LanthaScreen® Tb-anti-GST Antibody (Life Technologies) at final concentration of 5 nM was added to each well and incubated for an additional 30mins. 5 μl of streptavidin-XLL65 (Cisbio Assay) at a final concentration of […] was added to each assay well. Both dyes were diluted in buffer C (50 mM Tris pH 7.5, […], 100 μg/ml BSA). The plate was incubated at room temperature for a further 30mins and then read using a PheraStar FS (BMG Labtech). The data were analysed using Graphpad […]
(§3) 1.4 Surface Plasmon Resonance (SPR).
(§4) SPR-based ligand binding assays were performed using Biacore S200 (GE Healthcare) at 25 °C using single cycle affinity.
(§5) ATAD2N1064A was achieved using standard amine coupling on a CM5 chip surface. The surface was prepared through activation with EDC/NHS, followed by injection of 10 µg/ml of respective proteins until target level 8000 RU was reached. The surface was then quenched using 1 M Ethanolamine and washed with running buffer 10 mM HEPES, 150mM NaCl, 0.01% TWEEN20, 0.5 mM TCEP and 1% DMSO with a flow rate of […]. Compounds were injected in a dose-response manner (8 concentration points ranging from 0-200 µM) in series across the control, ATAD2, BRD4, and ATAD2-N1064A flow cells using solvent correction to account for bulk refractive index changes. The reference control channel was subtracted […]
(§6) from immobilised channels and dose-response data was fitted using a steady state constant Rmax 1:1 binding model, using an extrapolated Rmax determined from a binding control compound in those cases where the extrapolated Kd value was greater than the top concentration used in the experiment (200 µM). K d values are reported to the nearest 100th of micromolar. 1 […]
(§7) Crystallisation was performed at 20 °C using the hanging drop vapor diffusion method.
(§8) Crystals of ATAD2 were grown by mixing 2µl ATAD2 at 7mg/ml and 2µl precipitant containing 0.1 M BIS-TRIS pH 6.5 and 2.0 M ammonium sulfate. Crystals were harvested in a diffusion solution containing 10 mM compound, 5% DMSO, 25 mM HEPES pH 7.5, 75 mM NaCl, 50 mM BIS-TRIS pH 6.5 and 1.0 M Ammonium Sulfate for 48hrs. Prior to data collection the crystals were cryo protected with the addition of 25% (v/v) ethylene glycol to the diffusion solution. X-ray diffraction data were recorded at Diamond Light Source (Harwell, Oxfordshire, UK). Data processing was carried out using XDS, POINTLESS/AIMLESS2 and other programs of the CCP4i suite3 run through the CCP4i2 gui. Structures were solved by molecular replacement using PHASER4 and pdb 3DAI as a starting model. REFMAC5 was employed for refinement, and model building was performed using COOT6. PDBs were deposited within the protein database www.pdb.org using accession codes: 11 XXXX, 15a […]

ATAD2 bromodomain = target: T1, ATAD2 bromodomain (Homo sapiens, UniProt Q6PL18); test: Surface plasmon resonance (SPR) direct binding to ATAD2; conditions: SPR format assay; Kd above the top concentration projected by extrapolation (extrapolated Rmax from control compound)
T1 construct: 981-1108; GST (N); made in house; host or cells: Escherichia coli BL21 (DE3) pLysS, plasmid pGEX-6P-1
T1 sequence (Q6PL18 981-1108): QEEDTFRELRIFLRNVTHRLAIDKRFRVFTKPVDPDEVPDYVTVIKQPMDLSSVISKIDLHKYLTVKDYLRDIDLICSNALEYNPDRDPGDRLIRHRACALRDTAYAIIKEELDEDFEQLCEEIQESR
Description: (§9) Surface plasmon resonance (SPR) was used to assess the direct binding of the fragments and provide Kd values for binding to both ATAD2 and BRD4. SPR can yield artefactual data where the concentration of a small-molecular analyte exceeds ∼250 μM, and accordingly, this was the highest concentration used in the assays.
as §1, §2, §3, §4, §5, §6, §7, §8

[1] = target: T2, GST-ATAD2 bromodomain / biotinylated acetylated histone H4 peptide (Homo sapiens, UniProt Q6PL18); test: ATAD2-histone displacement HTRF assay; type: binding; conditions: for IC50: HTRF format assay, highest concentration 1000 μM; for ATAD2 LE: Ligand efficiency (LE) = 1.4(–log IC50)/N, N = number of non-hydrogen atoms, from HTRF IC50
T2 construct: 981-1108; made in house; host or cells: Escherichia coli BL21 (DE3) pLysS, plasmid pGEX-6P-1
T2 sequence (Q6PL18 981-1108): T1 sequence (Q6PL18 981-1108)
Description: as §9
1.1 Protein Purification.
The ATAD2 bromodomain 981-1108 was expressed with an N-terminal GST fusion from the pGEX-6P-1 plasmid. The plasmids were transformed into BL21 (DE3) pLysS Escherichia coli (Novagen) and then the cells grown in luria bertani (LB) media at 37 °C until an OD600 of 0.6 was reached. The temperature was reduced to 20 °C and expression induced using 0.2 mM Isopropyl β-D-1-thiogalactopyranoside (IPTG). The cells were harvested after overnight incubation and resuspended in buffer A (20 mM HEPES pH 7.4, 100 mM NaCl, 5 mM Dithiothreitol (DTT)). The cells were lysed by sonication and the lysate cleared by centrifugation (50,000 x g, 4 °C, 1 hr). The protein was passed over 5ml of glutathione Sepharose 4B resin (GE Healthcare) at 4 °C. The resin was then washed with buffer A and the protein eluted with buffer A supplemented with 10 mM glutathione. The protein was then applied to a Superdex 200 26/60 gel filtration column (GE Healthcare) equilibrated in buffer […]
1.2 Isothermal Titration Calorimetry.
ATAD2 was exchanged into ITC buffer (50 mM HEPES pH7.4, 200 mM NaCl, 1 mM DTT).
ITC measurements were carried out at 25°C on a Microcal ITC 200 (Malvern Instruments Ltd, Malvern, UK). Compound 11 at 40mM, 2% DMSO was titrated into ATAD2 prepared in the cell at 150 μM, 2% DMSO. Titrations began with an initial 0.5 μL injection followed by 19x 2 μL injections of compound, with 120s spacing between each injection, and stirred at 1000 rpm throughout the experiment. Data were then analysed using Origin 7.0 (OriginLab Corp., Burlington, NC, USA) and fit with the one-set-of-sites model.
1.3 ATAD2-Histone displacement HTRF assay.
Compounds (dissolved to 100 mM in DMSO) were dispensed into black 384 well assay plates […]
as §1, §2, §3, §4
ATAD2N1064A was achieved using standard amine coupling on a CM5 chip surface. The surface was prepared through activation with EDC/NHS, followed by injection of 10 µg/ml of respective proteins until target level 8000 RU was reached. The surface was then quenched using 1 M Ethanolamine and washed with running buffer 10 mM HEPES, 150mM NaCl, 0.01% TWEEN20, 0.5 mM TCEP and 1% DMSO with a flow rate of […]. Compounds were injected in a dose-response manner (8 concentration points ranging from 0-200 µM) in series across the control, ATAD2, BRD4, and ATAD2-N1064A flow cells using solvent correction to account for bulk refractive index changes. The reference control channel was subtracted

SMILES: CN1C(=O)C(C)(C)c2cc(=O)n(Cc3ccc(Br)cc3)cc21 [Compound 17k]
- Kd (BRD4): 48 µM
- Kd (ATAD2 bromodomain): 138 µM
- IC50 [1]: 236 ± 36 µM
- ATAD2 LE [1]: 0.23

SMILES: Cc1ccc(Cn2cc3c(cc2=O)C(C)(C)C(=O)N3C)cc1 [Compound 17l]
- melting point: 180 to 182 °C
- Kd (BRD4): 58 µM
- Kd (ATAD2 bromodomain): > 200 µM
- IC50 [1]: 274 ± 75 µM
- ATAD2 LE [1]: 0.23

SMILES: CN1C(=O)C(C)(C)c2cc(=O)n(Cc3ccc(C(F)(F)F)cc3)cc21 [Compound 17m]
- Kd (BRD4): 124 µM
- Kd (ATAD2 bromodomain): > 200 µM
- IC50 [1]: 179 ± 43 µM
- ATAD2 LE [1]: 0.21

SMILES: CN1C(=O)C(C)(C)c2cc(=O)n(Cc3ccc(Cl)c(Cl)c3)cc21 [Compound 17n]
- Kd (BRD4): 65 µM
- Kd (ATAD2 bromodomain): 159 µM
- IC50 [1]: 299 ± 28 µM
- ATAD2 LE [1]: 0.21

SMILES: CN1C(=O)C(C)(C)c2cc(=O)n(Cc3ccccc3C#N)cc21 [Compound 17o]
- Kd (BRD4): > 200 µM
- Kd (ATAD2 bromodomain): > 2000 µM
- IC50 [1]: > 1000 µM

SMILES: CN1C(=O)C(C)(C)c2cc(=O)n(Cc3cccc(C#N)c3)cc21 [Compound 17p]
- Kd (BRD4): 184 µM
- Kd (ATAD2 bromodomain): > 200 µM
- IC50 [1]: 668 ± 28 µM
- ATAD2 LE [1]: 0.19

SMILES: CN1C(=O)C(C)(C)c2cc(=O)n(Cc3ccccc3C(=O)O)cc21 [Compound 17q]
- Kd (BRD4): > 200 µM
- Kd (ATAD2 bromodomain): > 2000 µM
- IC50 [1]: > 1000 µM

SMILES: CCC1(CC)C(=O)N(C)c2cn(Cc3ccc(Cl)cc3)c(=O)cc21 [Compound 18a]
- Kd (BRD4): > 200 µM
- Kd (ATAD2 bromodomain): 107 µM
- IC50 [1]: 163 ± 23 µM
- ATAD2 LE [1]: 0.22

SMILES: CCC1(CC)C(=O)N(C)c2cn(Cc3ccc(C(F)(F)F)cc3)c(=O)cc21 [Compound 18b]
- Kd (BRD4): > 2000 µM
- Kd (ATAD2 bromodomain): > 200 µM
- IC50 [1]: 163 ± 37 µM
- ATAD2 LE [1]: 0.20

SMILES: CN1C(=O)C(C)(Cc2ccccc2)c2cc(=O)n(Cc3ccc(Cl)cc3)cc21 (stereo not drawn) [Compound 22a]
- Kd (BRD4): > 2000 µM
- Kd (ATAD2 bromodomain): > 200 µM
- IC50 [1]: > 1000 µM

SMILES: CN1C(=O)C(C)(Cc2ccccn2)c2cc(=O)n(Cc3ccc(Cl)cc3)cc21 (stereo not drawn) [Compound 22b]
- Kd (BRD4): > 200 µM
- Kd (ATAD2 bromodomain): > 200 µM
- IC50 [1]: > 1000 µM

SMILES: Cc1nc(CC2(C)C(=O)N(C)c3cn(Cc4ccc(Cl)cc4)c(=O)cc32)cs1 (stereo not drawn) [Compound 22c]
- Kd (BRD4): > 200 µM
- Kd (ATAD2 bromodomain): 110 µM
- IC50 [1]: 352 µM
- ATAD2 LE [1]: 0.17

SMILES: CN1C(=O)C(C)(CC(C)(C)C)c2cc(=O)n(Cc3ccc(Cl)cc3)cc21 (stereo not drawn) [Compound 22d]
- Kd (BRD4): > 2000 µM
- Kd (ATAD2 bromodomain): 125 µM
- IC50 [1]: 489 ± 18 µM
- ATAD2 LE [1]: 0.18

SMILES: CN1C(=O)C(C)(CC2(C)COC2)c2cc(=O)n(Cc3ccc(Cl)cc3)cc21 (stereo not drawn) [Compound 22e]
- Kd (BRD4): > 2000 µM
- Kd (ATAD2 bromodomain): > 200 µM
- IC50 [1]: 214 µM
- ATAD2 LE [1]: 0.19

SMILES: CN1C(=O)C(C)(CC2CC2)c2cc(=O)n(Cc3ccc(Cl)cc3)cc21 (stereo not drawn) [Compound 22f]
- Kd (BRD4): > 200 µM
- Kd (ATAD2 bromodomain): 113 µM
- IC50 [1]: 304 ± 83 µM
- ATAD2 LE [1]: 0.20
